System: CCC cells from a breast cancer patient (ER+, PR−, HER2 (2+))
Assay: Drug-sensitivity assay of cultured CCCs (Presto Blue cell growth/viability)
Assay type: cell-based, human
Conditions: cultured CCCs grown in MammoCult media, 10 000 cells per well, 48 hours incubation, Presto Blue fluorescence vs vehicle-treated cells (FIG. 13)
Procedure: One or more frozen aliquot of RoboSep™ CD45-negative cell population (described in Example I and containing about 5×10^6 nucleated cells and about 1 000 to 3 000 CTCs based on Epimet™-positive staining) is cultured in the conditions described in Example II until approximately 600 000 cells are obtained (usually after 6 subculture steps). This amount of cells is sufficient for testing four distinct compounds in triplicate at four different concentrations using a plating density of approximately 5 000 to 10 000 cells/well in 96-well plates. Cells are plated onto ultra-low attachment microtiter plates at 5 000 to 10 000 cells/well in 125 μL of fresh MammoCult™ media in triplicates. Experimental and control samples (no cells added) are incubated for 24 hours at 37° C. and 5% CO2. […] Fluorescence intensity (FI) is determined using a spectrofluorometer (excitation: 530-560 nm; emission: 590 nm). Dose response curves are calculated as a percentage of untreated controls (FI590 of test agent dilution/FI590 of untreated control)×100 and the LD50 are calculated.
Cells were collected by aphaeresis from a breast cancer patient (ER+, PR−, HER2 (2+)) diagnosed with invasive lobular carcinoma and metastatic spread to bone, liver and the mediastinum. […] Cell growth/viability was assessed using Presto Blue®(Invitrogen). […] Fluorescence values use the excitation and emission peaks for resorufin. […]

Row | IC50 (Homo sapiens, low attachment 96-well plate, read-out: IC50 of inhibition of cell growth) [µM] | Structure (SMILES) | effect on cell growth (increasing concentrations)
1 | ~1 | COc1cccc2c1C(=O)c1c(O)c3c(c(O)c1C2=O)C[C@@](O)(C(=O)CO)C[C@@H]3O[C@H]1C[C@H](N)[C@@H](O)[C@H](C)O1 [epirubicin] | –
2 | – | CC(=O)O[C@H]1C(=O)[C@@]2(C)[C@H]([C@H](OC(=O)c3ccccc3)[C@]3(O)C[C@H](OC(=O)[C@H](O)[C@@H](NC(=O)c4ccccc4)c4ccccc4)C(C)=C1C3(C)C)[C@]1(OC(C)=O)CO[C@@H]1C[C@@H]2O [taxol, paclitaxel] | no effect

From patent US9057055B2, “Method of obtaining circulating cancer cell populations” (THE ROYAL INSTITUTION FOR THE ADVANCEMENT OF …, priority 2012, dated 2015)
